pIC50: −log10 of the molar value.
Tests used:
ROCK2 = ROCK2 (Homo sapiens (Human), UniProt O75116); test: ROCK assay (Caliper LABCHIP peptide phosphorylation), ROCK2; type: biochemical; conditions: 5 μM ATP, 1.5 μM peptide substrate;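 also: reaction stopped with EDTA, then phosphorylated and unphosphorylated peptide resolved by microfluidic electrophoresis, kinase inhibition computed at each compound concentration in dose-response series, DMSO under 2%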
ROCK1 = ROCK1 (Homo sapiens (Human), UniProt Q13464); test: ROCK assay (Caliper LABCHIP peptide phosphorylation), ROCK1; type: biochemical; conditions: 5 μM ATP, 1.5 μM peptide substrate;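 also: Read-out is separation of phosphorylated from unphosphorylated peptide, with kinase activity inhibition computed at every concentration of a dose-response series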
ROCK1, sequence (Q13464 whole entry, species assumed): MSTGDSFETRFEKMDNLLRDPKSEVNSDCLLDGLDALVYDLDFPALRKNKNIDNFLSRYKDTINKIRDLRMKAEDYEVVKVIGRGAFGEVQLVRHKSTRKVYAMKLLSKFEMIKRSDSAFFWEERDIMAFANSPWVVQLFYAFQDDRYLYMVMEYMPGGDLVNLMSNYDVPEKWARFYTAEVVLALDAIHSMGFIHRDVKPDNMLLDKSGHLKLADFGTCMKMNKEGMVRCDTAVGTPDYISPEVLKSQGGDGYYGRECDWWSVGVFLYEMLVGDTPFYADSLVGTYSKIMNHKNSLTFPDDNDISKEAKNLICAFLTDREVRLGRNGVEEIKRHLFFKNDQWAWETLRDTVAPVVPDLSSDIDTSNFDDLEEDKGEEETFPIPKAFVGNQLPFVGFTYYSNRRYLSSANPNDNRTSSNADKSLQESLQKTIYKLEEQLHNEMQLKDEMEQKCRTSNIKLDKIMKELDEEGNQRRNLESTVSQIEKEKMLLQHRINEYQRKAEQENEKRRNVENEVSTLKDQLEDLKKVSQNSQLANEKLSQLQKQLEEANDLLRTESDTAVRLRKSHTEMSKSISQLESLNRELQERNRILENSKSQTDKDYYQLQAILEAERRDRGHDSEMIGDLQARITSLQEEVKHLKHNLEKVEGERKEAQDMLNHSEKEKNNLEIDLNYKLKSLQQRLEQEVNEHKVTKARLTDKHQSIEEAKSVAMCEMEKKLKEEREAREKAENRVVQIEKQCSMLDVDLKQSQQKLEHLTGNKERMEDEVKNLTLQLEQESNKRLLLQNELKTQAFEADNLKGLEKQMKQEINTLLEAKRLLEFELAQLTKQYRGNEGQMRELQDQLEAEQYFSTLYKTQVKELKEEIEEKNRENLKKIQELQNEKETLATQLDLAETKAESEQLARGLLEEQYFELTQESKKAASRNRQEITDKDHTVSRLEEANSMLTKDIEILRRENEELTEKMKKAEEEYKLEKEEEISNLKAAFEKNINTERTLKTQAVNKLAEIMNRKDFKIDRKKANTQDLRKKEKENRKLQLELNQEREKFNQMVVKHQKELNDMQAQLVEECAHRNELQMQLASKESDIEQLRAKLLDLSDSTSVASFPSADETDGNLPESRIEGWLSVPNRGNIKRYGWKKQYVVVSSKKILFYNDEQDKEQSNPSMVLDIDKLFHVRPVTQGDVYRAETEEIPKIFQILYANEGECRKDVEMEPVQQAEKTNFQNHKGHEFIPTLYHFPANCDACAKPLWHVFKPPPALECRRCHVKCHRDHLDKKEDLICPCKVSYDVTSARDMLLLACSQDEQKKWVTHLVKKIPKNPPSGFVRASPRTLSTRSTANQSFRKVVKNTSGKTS

ROCK2, sequence (O75116 whole entry, species assumed): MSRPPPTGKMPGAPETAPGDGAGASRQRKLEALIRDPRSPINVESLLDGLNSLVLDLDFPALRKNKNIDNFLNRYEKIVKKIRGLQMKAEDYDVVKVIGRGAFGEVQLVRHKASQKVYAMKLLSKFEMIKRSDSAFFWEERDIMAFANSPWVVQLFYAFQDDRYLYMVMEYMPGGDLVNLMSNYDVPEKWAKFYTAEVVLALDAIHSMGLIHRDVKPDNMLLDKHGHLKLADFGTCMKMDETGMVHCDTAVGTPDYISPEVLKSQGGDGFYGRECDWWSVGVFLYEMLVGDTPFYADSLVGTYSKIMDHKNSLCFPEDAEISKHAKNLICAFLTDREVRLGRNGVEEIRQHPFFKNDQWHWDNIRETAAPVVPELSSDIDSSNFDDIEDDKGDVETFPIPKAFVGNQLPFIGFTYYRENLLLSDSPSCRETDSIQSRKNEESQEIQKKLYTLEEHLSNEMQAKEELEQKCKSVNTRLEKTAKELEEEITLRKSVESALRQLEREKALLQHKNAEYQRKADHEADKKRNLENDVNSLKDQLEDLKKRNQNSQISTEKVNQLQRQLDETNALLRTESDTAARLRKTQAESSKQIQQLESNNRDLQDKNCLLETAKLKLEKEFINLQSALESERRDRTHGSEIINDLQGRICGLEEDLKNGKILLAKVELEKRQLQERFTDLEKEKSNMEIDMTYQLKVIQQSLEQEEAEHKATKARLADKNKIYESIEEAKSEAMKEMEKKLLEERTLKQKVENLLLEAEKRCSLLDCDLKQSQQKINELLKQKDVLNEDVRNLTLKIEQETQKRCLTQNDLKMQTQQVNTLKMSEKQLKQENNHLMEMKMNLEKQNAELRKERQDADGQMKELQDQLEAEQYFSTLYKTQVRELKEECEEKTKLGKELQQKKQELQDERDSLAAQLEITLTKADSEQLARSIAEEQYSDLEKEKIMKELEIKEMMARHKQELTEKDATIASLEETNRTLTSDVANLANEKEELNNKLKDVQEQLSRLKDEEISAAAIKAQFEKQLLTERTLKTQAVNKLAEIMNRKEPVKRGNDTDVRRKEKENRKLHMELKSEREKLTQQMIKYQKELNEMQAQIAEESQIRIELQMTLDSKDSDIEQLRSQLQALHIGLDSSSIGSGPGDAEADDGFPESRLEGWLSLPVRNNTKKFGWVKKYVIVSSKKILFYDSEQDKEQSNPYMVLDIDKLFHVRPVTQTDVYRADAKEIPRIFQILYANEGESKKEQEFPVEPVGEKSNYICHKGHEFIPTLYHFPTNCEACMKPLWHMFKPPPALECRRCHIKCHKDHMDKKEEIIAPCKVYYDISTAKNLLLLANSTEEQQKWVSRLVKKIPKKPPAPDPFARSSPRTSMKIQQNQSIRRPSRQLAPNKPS

pIC50 (ROCK2)	pIC50 (ROCK1)	Compound
9.07	8.81	CCN1CCC[C@H]1CNC(=O)c1cccc(CNC(=O)c2ccc(-c3cn[nH]c3)c(OC)c2)c1 [Example 241, N-{[3-({[(2S)-1-ethylpyrrolidin-2-yl]methyl}carbamoyl)phenyl]methyl}-3-methoxy-4-(1H-pyrazol-4-yl)benzamide]
8.36	7.41	COc1cc(C(=O)NCc2ccc(F)c(C(=O)O)c2)ccc1-c1cn[nH]c1 [Example 242, 2-fluoro-5-({[3-methoxy-4-(1H-pyrazol-4-yl)phenyl] formamido}methyl) benzoic acid]
9.30	8.47	Cc1cc(C(=O)NCc2cccc(C(=O)NCC3CC3)c2)ccc1-c1cn[nH]c1 [Example 243, N-({3-[(cyclopropyl-methyl)carbamoyl]phenyl}methyl)-3-methyl-4-(1H-pyrazol-4-yl)benzamide]
9.07	8.37	Cc1cc(C(=O)NCc2cccc(C(=O)NC3CC3)c2)ccc1-c1cn[nH]c1 [Example 244, N-{[3-(cyclopropyl-carbamoyl)phenyl]methyl}-3-methyl-4-(1H-pyrazol-4-yl)benzamide]
9.15	8.61	Cc1cc(C(=O)NCc2cccc(C(=O)NC[C@H]3CCCN3)c2)ccc1-c1cn[nH]c1 [Example 245, 3-methyl-4-(1H-pyrazol-4-yl)-N-[(3-{[(2R)-pyrrolidin-2-ylmethyl]carbamoyl}phenyl)methyl] benzamide]
9.64	9.59	COc1cc(C(=O)NCc2cccc(C(=O)Nc3nc4c(s3)CNCC4)c2)ccc1-c1cn[nH]c1 [Example 246, 3-methoxy-4-(1H-pyrazol-4-yl)-N-{[3-({4H,5H,6H, 7H-[1,3]thiazolo[5,4-c]pyridin-2-yl}carbamoyl)phenyl]methyl} benzamide]
9.48	9.41	COc1cc(C(=O)NCc2cccc(C(=O)Nc3nc4c(s3)CN(C)CC4)c2)ccc1-c1cn[nH]c1 [Example 247, 3-methoxy-N-{[3-({5-methyl-4H, 5H,6H,7H-[1,3]thiazolo [5,4-c]pyridin-2-yl}carbamoyl)phenyl]methyl}-4-(1H-pyrazol-4-yl)benzamide]
9.72	9.37	COc1cc(C(=O)NCc2cccc(C(=O)NC3CCN(C)CC3)c2)ccc1-c1cn[nH]c1 [Example 248, 3-methoxy-N-({3-[(1-methylpiperidin-4-yl)carbamoyl]phenyl}methyl)-4-(1H-pyrazol-4-yl)benzamide]
9.44	8.91	COc1cc(-c2cn[nH]c2)ccc1C(=O)NCc1cccc(C(=O)NC2CCN(C)CC2)c1 [Example 249, 2-methoxy-N-({3-[(1-methylpiperidin-4-yl)carbamoyl]phenyl}methyl)-4-(1H-pyrazol-4-yl)benzamide]
9.14	8.00	COc1cc(C(=O)NCc2cccc(C(N)=O)c2)ccc1-c1cn[nH]c1 [Example 250, N-[(3-carbamoylphenyl)methyl]-3-methoxy-4-(1H-pyrazol-4-yl)benzamide]
7.47	7.34	Cc1cc(C(=O)N[C@H](CC(=O)O)c2ccccc2)ccc1-c1cn[nH]c1 [Example 251, (3R)-3-{[3-Methyl-4-(1H-pyrazol-4-yl)phenyl]formamido}-3-phenylpropanoic acid]
6.59	7.00	Cc1cc(C(=O)N[C@H](CC(=O)NCC(C)(C)O)c2ccccc2)ccc1-c1cn[nH]c1 [Example 253, (3R)-N-(2-Hydroxy-2-methylpropyl)-3-{[3-methyl-4-(1H-pyrazol-4-yl)phenyl]formamido}-3-phenylpropanamide]
7.96	7.01	CC(=O)NC[C@@H](NC(=O)c1ccc(-c2cn[nH]c2)c(C)c1)c1ccccc1 [Example 255, N-[(2S)-2-{[3-Methyl-4-(1H-pyrazol-4-yl)phenyl]formamido}-2-phenylethyl]acetamide]
7.28	7.07	CC(C)(O)COc1cc(C(=O)N[C@H](CN)c2ccccc2)ccc1-c1cn[nH]c1 [Example 257, N-[(15)-2-amino-1-phenylethyl]-3-(2-hydroxy-2-methylpropoxy)-4-(1H-pyrazol-4-yl)benzamide]
8.46	8.05	NC[C@@H](NC(=O)c1ccc(-c2cn[nH]c2)c(OCCO)c1)c1ccccc1 [Example 258, N-[(15)-2-amino-1-phenylethyl]-3-(2-hydroxyethoxy)-4-(1H-pyrazol-4-yl)benzamide]
8.03	7.63	COc1cc(C(=O)N[C@H](CNC(C)=O)c2ccccc2)ccc1-c1cn[nH]c1 [Example 259, N-[(25)-2-{[3-methoxy-4-(1H-pyrazol-4-yl)phenyl] formamido}-2-phenylethyl] acetamide]
8.72	8.18	COc1cc(C(=O)N[C@H](CNS(C)(=O)=O)c2ccccc2)ccc1-c1cn[nH]c1 [Example 260, N-[(1S)-2-methane-sulfonamido-1-phenylethyl]-3-methoxy-4-(1H-pyrazol-4-yl)benzamide]

pIC50 (ROCK2)	pIC50 (ROCK1)	Compound
8.54	7.95	COc1cc(C(=O)N[C@H](CNS(=O)(=O)C2CC2)c2ccccc2)ccc1-c1cn[nH]c1 [Example 261, N-[(1S)-2-cyclopropane-sulfonamido-1-phenylethyl]-3-methoxy-4-(1H-pyrazol-4-yl)benzamide]
7.44	7.26	CCS(=O)(=O)NC[C@@H](NC(=O)c1ccc(-c2cn[nH]c2)c(OC)c1)c1ccccc1 [Example 262, N-[(1S)-2-ethane-sulfonamido-1-phenylethyl]-3-methoxy-4-(1H-pyrazol-4-yl)benzamide]
7.63	7.11	CC[C@@H](NC(=O)c1ccc(-c2cn[nH]c2)c(OC)c1)c1c(F)cccc1F [Example 264, N-[(1R)-1-(2,6-Difluorophenyl)propyl]-3-methoxy-4-(1H-pyrazol-4-yl)benzamide]
8.89	8.65	CCNC[C@@H](NC(=O)c1ccc(-c2cn[nH]c2)c(OC)c1)c1c(F)cccc1F [Example 265, N-[(1S)-1-(2,6-Difluorophenyl)-2-(ethylamino)ethyl]-3-methoxy-4-(1H-pyrazol-4-yl)benzamide]
8.34	8.34	COc1cc(C(=O)N[C@H](CNC2CC2)c2c(F)cccc2F)ccc1-c1cn[nH]c1 [Example 266, N-[(1S)-2-(Cyclopropylamino)-1-(2,6-difluorophenyl)ethyl]-3-methoxy-4-(1H-pyrazol-4-yl)benzamide]
6.98	6.69	COc1cc(C(=O)NCc2ccccc2C(C)C)ccc1-c1cn[nH]c1 [Example 267, 3-Methoxy-N-{[2-(propan-2-yl)phenyl]methyl}-4-(1H-pyrazol-4-yl)benzamide]
7.23	6.55	C[C@@H](NC(=O)c1ccc(-c2cn[nH]c2)c(CO)c1)c1ccccc1 [Example 272, 3-(hydroxymethyl)-N-[(1R)-1-phenylethyl]-4-(1H-pyrazol-4-yl)benzamide]
8.11	7.30	CC(O)c1cc(C(=O)N[C@H](C)c2ccccc2)ccc1-c1cn[nH]c1 (stereo partly drawn) [Example 273, 3-(1-hydroxyethyl)-N-[(1R)-1-phenylethyl]-4-(1H-pyrazol-4-yl)benzamide]
6.58	6.54	COC[C@@H](NC(=O)c1ccc(-c2cn[nH]c2)c(C(C)O)c1)c1ccccc1 (stereo partly drawn) [Example 274, 3-(1-hydroxyethyl)-N-[(1S)-2-methoxy-1-phenylethyl]-4-(1H-pyrazol-4-yl)benzamide]
5.85	6.01	CC(NC(=O)c1ccc(-c2cn[nH]c2)c(C=O)c1)c1ccccc1F (stereo not drawn) [Example 275, N-[1-(2-fluorophenyl)ethyl]-3-formyl-4-(1H-pyrazol-4-yl)benzamide]
6.39	6.29	CC(NC(=O)c1ccc(-c2cn[nH]c2)c(C=O)c1)c1ccccc1F (stereo not drawn) [Example 276, N-[1-(2-fluorophenyl)ethyl]-3-formyl-4-(1H-pyrazol-4-yl)benzamide]
7.35	6.81	COC[C@@H](NC(=O)c1ccc(-c2cn[nH]c2)c(C(C)O)c1)c1ccccc1 (stereo partly drawn) [Example 277, 3-(1-hydroxyethyl)-N-[(1S)-2-methoxy-1-phenylethyl]-4-(1H-pyrazol-4-yl)benzamide]
5.88	5.75	CC(O)c1cc(C(=O)NC(C)c2ccccc2F)ccc1-c1cn[nH]c1 (stereo not drawn) [Example 278, N-[1-(2-fluorophenyl)ethyl]-3-(1-hydroxyethyl)-4-(1H-pyrazol-4-yl)benzamide]
7.80	7.28	CC(O)c1cc(C(=O)NC(C)c2ccccc2F)ccc1-c1cn[nH]c1 (stereo not drawn) [Example 279, N-[1-(2-fluorophenyl)ethyl]-3-(1-hydroxyethyl)-4-(1H-pyrazol-4-yl)benzamide]
6.35	< 5.70	CC(O)c1cc(C(=O)N[C@H](C)c2ccccc2)ccc1-c1cn[nH]c1 (stereo partly drawn) [Example 280, 3-(1-hydroxyethyl)-N-[(1R)-1-phenylethyl]-4-(1H-pyrazol-4-yl)benzamide]
8.01	7.57	CC(O)c1cc(C(=O)N[C@H](C)c2ccccc2)ccc1-c1cn[nH]c1 (stereo partly drawn) [Example 281, 3-(1-hydroxyethyl)-N-[(1R)-1-phenylethyl]-4-(1H-pyrazol-4-yl)benzamide]

Compound	pIC50 (ROCK2)	pIC50 (ROCK1)
Cc1cc(C(=O)N[C@H](CN)c2ccccc2)ccc1-c1cn[nH]c1 [Example 256, N-[(15)-2-amino-1-phenylethyl]-3-methyl-4-(1H-pyrazol-4-yl)benzamide]	9.14	8.47
Cc1cc(C(=O)N[C@H](CN(C)C)c2ccccc2)ccc1-c1cn[nH]c1 [Example 263, N-[(1S)-2-(Dimethylamino)-1-phenylethyl]-3-methyl-4-(1H-pyrazol-4-yl)benzamide]	8.40	8.19
C[C@@H](NC(=O)c1ccc(-c2cn[nH]c2)c(CO)c1)c1ccc(F)cc1 [Example 271, N-[(1R)-1-(4-Fluorophenyl)ethyl]-3-(hydroxymethyl)-4-(1H-pyrazol-4-yl)benzamide]	7.12	5.46

Reference: US9458110B2, “Phenylpyrazole derivatives as potent ROCK1 and ROCK2 inhibitors” (BRISTOL-MYERS SQUIBB COMPANY, priority 2013, dated 2016)
